Bases are written 5' to 3'; sugars and linkages follow in the same order, as letters with counts (s phosphorothioate, o phosphodiester; PS: all linkages phosphorothioate). The collection does not say whether C is 5-methylated. l = locked nucleic acid (LNA); d = 2'-deoxy (DNA)

The target in the data set is Tau. As to the kind of experiment: rat primary cortical neurons, FLIPR, 25 uM ASO.
For the sequence CATTTTCTGACTCTAAT (sugars l4 d9 l4, PS), the calcium oscillation score was 57.8 % of control. Regarding AGGCGCGAGCAGCG (sugars l3 d8 l3, PS), the calcium oscillation score is 100 % of control.

With “GGGCCTGATCACAAACCCTG (sugars l3 d14 l3, PS)”, the calcium oscillation score is 42.7 % of control. In the case of “GCCCACCCATCAATTTGGAA (sugars l3 d14 l3, PS)”, the calcium oscillation score is 1.3 % of control. Take “TAACCAGCTAGTGGTGCCAC (sugars l3 d14 l3, PS)”: the calcium oscillation score is 18.4 % of control. As to “TTGCCTAATGAGCCACACTT (sugars l3 d14 l3, PS)”, the calcium oscillation score was 36.5 % of control.

Take “CTTCCATCACTTCGAACTCC (sugars l3 d14 l3, PS)”: the calcium oscillation score is 27.1 % of control. For the sequence “TTAATTATCTGCACCTT (sugars l3 d10 l4, PS)”, the calcium oscillation score is 33.9 % of control.

Regarding “CAATTTGGAAAGATGAAATT (sugars l3 d14 l3, PS)”, the calcium oscillation score is 3.89 % of control. Turning to “AAACTCATTTACCAATTAT (sugars l4 d11 l4, PS)”, the calcium oscillation score is 70.7 % of control. With “CTTTATTTCCAAATTCACT (sugars l5 d9 l1 d2 l2, PS)”, the calcium oscillation score was 104 % of control. On to “AGCTTCCACATTTTACA (sugars l3 d12 l2, PS)”, for which the calcium oscillation score was 63.8 % of control.

In the case of CAGAACTAAATTTACC (sugars l4 d8 l4, PS), the calcium oscillation score is 51.1 % of control. Turning to GGGAGGCAGACACCTC (sugars l3 d10 l3, PS), the calcium oscillation score was 42.8 % of control.

As for “TTATTTCCAAATTCACTTTT (sugars l2 d16 l2, PS)”, the calcium oscillation score was 182 % of control.

Regarding “ACCCATCAATTTGGAAAGAT (sugars l3 d14 l3, PS)”, the calcium oscillation score is 72.6 % of control. With TCCAGTCCCGTCTTTG (sugars l3 d10 l3, PS), the calcium oscillation score was 11.5 % of control. In the case of “TTATTTCCAAATTCACTTTT (sugars lldldldddddddddldlll, PS)”, the calcium oscillation score is 106 % of control. As to TTGAAGTCCCGAGCCA (sugars l3 d10 l3, PS), the calcium oscillation score was 2.38 % of control. Regarding CAGCGTGATCTTCCAT (sugars l3 d10 l3, PS), the calcium oscillation score is 13.4 % of control. For “TTTTTTAACTCCCAACTCTT (sugars l4 d14 l2, PS)” the value was 98.3 % of control; for “TTAACCCTTGATCATATTTG (sugars l3 d14 l3, PS)”, 14.3 % of control; for “CCCTTAGACATAACACA (sugars l3 d12 l2, PS)”, 65.5 % of control. For TCATCGCTTCCAGTCC (sugars l3 d10 l3, PS), the calcium oscillation score was 19.2 % of control. Turning to “ATCTTAATTCATTTAATTCT (sugars l4 d12 l4, PS)”, the calcium oscillation score is 93.1 % of control. The figure for GCTTTCCAATTCCCCA (sugars l2 d12 l2, PS) is 101 % of control; for “GCAACAATCCAACCACT (sugars l3 d12 l2, PS)” it is 65.4 % of control; for “AACCAACTTTCATCTACTTT (sugars l4 d14 l2, PS)” it is 63 % of control. Take TAATCACTCATGCCTT (sugars l4 d8 l4, PS): the calcium oscillation score was 65.6 % of control. With “TCCTCACTTTACACATTA (sugars l3 d13 l2, PS)”, the calcium oscillation score was 62.5 % of control.

For the sequence “CCATCAATTTGGAAAGATGA (sugars l3 d14 l3, PS)”, the calcium oscillation score is 52.3 % of control. With AAACTTTTACTCTGACT (sugars l4 d9 l4, PS), the calcium oscillation score was 59.4 % of control.

As to CCCAATCTTCGACTGG (sugars l3 d10 l3, PS), the calcium oscillation score is 21.7 % of control. Take “CAACTGGTTTGTAGACTATT (sugars l3 d14 l3, PS)”: the calcium oscillation score is 6.64 % of control. In the case of “TTTATTTCCAAATTCACTTT (sugars l5 d11 l4, PS)”, the calcium oscillation score is 115 % of control. With “GCCACACTTGGAGGTCACCT (sugars l3 d14 l3, PS)”, the calcium oscillation score is 4.52 % of control. In the case of “TATTTCCAAATTCACTTTTA (sugars llldldddddddddlddlll, PS)”, the calcium oscillation score is 125 % of control. In the case of “TAATAGATCTTTCCCCTC (sugars l2 d13 l3, PS)”, the calcium oscillation score is 101 % of control. Turning to TTGTGATGCAGGAG (sugars l3 d8 l3, PS), the calcium oscillation score was 0 % of control. For CTAATCCTGTGCTTCA (sugars l3 d10 l3, PS) the value was 100 % of control; for “AACCAACTCAACATTACCCT (sugars l2 d16 l2, PS)”, 86.7 % of control; for CTAAACCATGATCTTA (sugars l3 d10 l3, PS), 21.1 % of control. With “ATCACTGATTTTGAAGTCCC (sugars l5 d10 l5, PS)”, the calcium oscillation score was ≥ 200 % of control. In the case of TCGCTTCCAGTCCC (sugars l3 d8 l3, PS), the calcium oscillation score is 142 % of control.

Take “CAACTCAAACACTAACTT (sugars l4 d10 l4, PS)”: the calcium oscillation score is 64.5 % of control. For “AGTCTACCATGTCGATGCTG (sugars l3 d14 l3, PS)” the value was 71.2 % of control. “CTTTATTTCCAAATTCAC (sugars l4 d10 l4, PS)”: the calcium oscillation score is 110 % of control. Regarding “CTGGTTTGTAGACTATTTGC (sugars l3 d14 l3, PS)”, the calcium oscillation score was 0 % of control.

For CTACTATTTACTATGC (sugars l3 d9 l4, PS), the calcium oscillation score was 66.8 % of control. Regarding ATAGTCACTCTGGTG (sugars l3 d9 l3, PS), the calcium oscillation score was 27.8 % of control. As for “GTCCAAACTTTTACTCT (sugars l4 d11 l2, PS)”, the calcium oscillation score is 75.7 % of control.

Turning to “TTTTTATTCATAACTTTTCA (sugars l4 d12 l4, PS)”, the calcium oscillation score is 56.4 % of control. Consider “TTTTCTTGTTCTAACCCC (sugars l2 d13 l3, PS)”, for which the calcium oscillation score was 50.1 % of control.

In the case of “CCCCACCCAAACTCCAAG (sugars l1 d15 l2, PS)”, the calcium oscillation score was 46.2 % of control.

In the case of “AGGTTAAGTGATTAACCAAT (sugars l3 d14 l3, PS)”, the calcium oscillation score was 115 % of control. The figure for “TCCTTGAAGTCAAGCTTCTC (sugars l3 d14 l3, PS)” is 49.8 % of control. With “AACCACTCTTATTCTTTAAA (sugars l4 d12 l4, PS)”, the calcium oscillation score is 91.3 % of control. Regarding “GTGGGTGATATTGTCCAGGG (sugars l3 d14 l3, PS)”, the calcium oscillation score is 0 % of control.

Turning to GGGACGTGGGTGATAT (sugars l3 d10 l3, PS), the calcium oscillation score is 27.6 % of control. “TCCAAGTCAATGCCTGGCTT (sugars l3 d14 l3, PS)”: the calcium oscillation score was 18.1 % of control. Take “ACAGATATTCATTCCCT (sugars l4 d11 l2, PS)”: the calcium oscillation score is 44.2 % of control.

With “TCCCCATTTATCCTTCA (sugars l2 d13 l2, PS)”, the calcium oscillation score was 65.9 % of control. As for CTTACTGATCATAATCC (sugars l4 d9 l4, PS), the calcium oscillation score was 85.1 % of control. For “CAGATATTCATTCCCTC (sugars l2 d12 l3, PS)”, the calcium oscillation score is 64.4 % of control. “CTTTTCCCAATTATTAACC (sugars l3 d14 l2, PS)”: the calcium oscillation score was 54.5 % of control. In the case of “ATTCATTTTACTTTACTTT (sugars l4 d11 l4, PS)”, the calcium oscillation score was 64.6 % of control. In the case of CTCCAATCTTACAGAT (sugars l4 d9 l3, PS), the calcium oscillation score was 102 % of control. Consider “TCCATTTTCTGACTCTA (sugars l3 d12 l2, PS)”, for which the calcium oscillation score is 40.4 % of control. For “CCAGCGTGATCTTCCATCAC (sugars lldllddddddddddlldll, PS)” the value was 121 % of control; for “TTTTCTCTCTTAACTTTATT (sugars l4 d12 l4, PS)”, 89 % of control; for TATCTGCAAACTCAAC (sugars l4 d8 l4, PS), 98.9 % of control.

In the case of “AAACATCTAAACACCTCAAT (sugars l4 d12 l4, PS)”, the calcium oscillation score is 78.9 % of control. For AGGTCAACTGGTTTGT (sugars l3 d10 l3, PS), the calcium oscillation score was 0 % of control. For “TTTCATGTTAAATCCCT (sugars l4 d10 l3, PS)” the value was 94.2 % of control; for “GCGAGTCTACCATGTCGATG (sugars l3 d14 l3, PS)”, 0 % of control; for “GTTGCCTAATGAGCCACACT (sugars l3 d14 l3, PS)”, 59.8 % of control.

Regarding “TTTAACTCAAATCAATTCTC (sugars l4 d12 l4, PS)”, the calcium oscillation score was 65.7 % of control. The figure for “TCAACATTACCCTTAAATAT (sugars l4 d13 l3, PS)” is 82.4 % of control.

“ATTTCCAAATTCACTTTTAC (sugars l1 d17 l2, PS)”: the calcium oscillation score is ≥ 200 % of control. In the case of “CTTTATTTCCAAATTCACTT (sugars l1 d17 l2, PS)”, the calcium oscillation score is 179 % of control. On to CCCGCCTTTAGTGATT (sugars l3 d10 l3, PS), for which the calcium oscillation score is 30.9 % of control. For the sequence “CTAATTCCCAAATTCCTCA (sugars l2 d14 l3, PS)”, the calcium oscillation score was 62.1 % of control. For “CGAGTCTACCATGTCGATGC (sugars l3 d14 l3, PS)”, the calcium oscillation score is 78.5 % of control. Consider “TTTCAACTCTTAGCATCC (sugars l2 d12 l4, PS)”, for which the calcium oscillation score was 52.5 % of control. Regarding CTGTGCTTCAGGCCTT (sugars l3 d10 l3, PS), the calcium oscillation score is 51 % of control. As for “CCACTCCATGTCAATCA (sugars l4 d11 l2, PS)”, the calcium oscillation score is 63.5 % of control. CTCTTCAAATCATTCAA (sugars l4 d9 l4, PS): the calcium oscillation score was 68.4 % of control. Turning to ATCTTCGACTGGACTC (sugars l3 d10 l3, PS), the calcium oscillation score is 59.7 % of control. As to “ATTTCCAAATTCACTTTTAC (sugars lldldldddddddddldlll, PS)”, the calcium oscillation score is 122 % of control.

In the case of “CCTTTTTATTTCCTCCGC (sugars l3 d13 l2, PS)”, the calcium oscillation score was 40.1 % of control.

As to TAATCACTCATGCCTTA (sugars l4 d9 l4, PS), the calcium oscillation score is 62.9 % of control. The figure for “AGGGACGTGGGTGATATTGT (sugars l3 d14 l3, PS)” is 1.3 % of control; for CTCAGGTCAACTGGTT (sugars l3 d10 l3, PS) it is 83.8 % of control. For TGGACCACCTTACCAC (sugars l3 d10 l3, PS) the value was 48.1 % of control; for GCAAACCACTCTTATT (sugars l4 d10 l2, PS), 95.4 % of control.

These data come from the OligoGym collection.
